A short description of series [1]: Selectivity index, ratio of CC50 for cytotoxicity against human CEM cells to EC50 for antiviral activity against HIV-2 ROD infected in thymidine kinase deficient human CEM cells. Conditions: read-out: Ratio CC50/EC50. It is filed as toxicity, cell-based.
In series [2] the target is T1, DNA polymerase subunit gamma-1 (Homo sapiens) (UniProt P54098).
T1 sequence (whole entry): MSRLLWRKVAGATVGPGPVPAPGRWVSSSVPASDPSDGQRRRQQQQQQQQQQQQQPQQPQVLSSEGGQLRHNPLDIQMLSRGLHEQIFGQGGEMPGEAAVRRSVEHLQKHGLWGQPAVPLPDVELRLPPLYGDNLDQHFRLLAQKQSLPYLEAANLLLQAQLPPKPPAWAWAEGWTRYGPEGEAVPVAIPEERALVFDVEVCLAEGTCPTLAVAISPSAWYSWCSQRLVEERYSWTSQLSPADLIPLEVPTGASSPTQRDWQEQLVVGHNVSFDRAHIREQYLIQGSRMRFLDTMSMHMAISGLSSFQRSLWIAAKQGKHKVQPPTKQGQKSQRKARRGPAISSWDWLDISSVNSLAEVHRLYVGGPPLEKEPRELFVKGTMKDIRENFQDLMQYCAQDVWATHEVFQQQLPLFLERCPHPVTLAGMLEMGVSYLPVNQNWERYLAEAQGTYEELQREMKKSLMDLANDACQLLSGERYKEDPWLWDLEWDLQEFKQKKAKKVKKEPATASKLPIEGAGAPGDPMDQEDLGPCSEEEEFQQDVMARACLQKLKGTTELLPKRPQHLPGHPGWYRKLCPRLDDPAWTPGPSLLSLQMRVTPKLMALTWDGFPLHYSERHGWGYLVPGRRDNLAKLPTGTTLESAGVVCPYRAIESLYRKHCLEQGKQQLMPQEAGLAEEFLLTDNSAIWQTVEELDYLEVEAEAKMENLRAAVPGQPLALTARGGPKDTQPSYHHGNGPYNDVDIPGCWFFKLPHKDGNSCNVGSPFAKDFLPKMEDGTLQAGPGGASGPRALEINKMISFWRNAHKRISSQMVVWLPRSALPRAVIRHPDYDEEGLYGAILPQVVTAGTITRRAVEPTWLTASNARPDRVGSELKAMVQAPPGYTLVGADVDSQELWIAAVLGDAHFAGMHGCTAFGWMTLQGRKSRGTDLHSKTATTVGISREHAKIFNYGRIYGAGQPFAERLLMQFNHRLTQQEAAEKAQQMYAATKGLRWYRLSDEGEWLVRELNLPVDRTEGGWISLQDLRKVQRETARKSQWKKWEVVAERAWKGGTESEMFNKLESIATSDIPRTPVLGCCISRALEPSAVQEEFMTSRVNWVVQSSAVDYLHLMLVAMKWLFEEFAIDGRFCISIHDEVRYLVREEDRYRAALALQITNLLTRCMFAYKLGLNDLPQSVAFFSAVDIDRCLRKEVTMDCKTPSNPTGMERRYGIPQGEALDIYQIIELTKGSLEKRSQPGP
Nature of the series: Substrate activity at human DNA polymerase gamma assessed as n+1 band formation incubated for 120 mins in presence of primer/template mixture and dNTPs by primer extension assay based fluorescence analysis.

The nature of series [3]: Half life of the compound in human CEM/0 cell extracts by RP18-HPLC analysis. The class given is ADME, CCRF-CEM.
A short description of series [4]: Cytotoxicity against human CEM cells assessed as inhibition of cell proliferation. It is filed as toxicity, cell-based, CCRF-CEM.
Series [5] has as its system Human immunodeficiency virus 1. The experiment in a line: Antiviral activity against HIV-1 HE infected in wild type human CEM/0 cells assessed as inhibition of virus-induced giant cell formation incubated for 4 to 5 days by light microscopy. Conditions: Human immunodeficiency virus 1, HE, CCRF-CEM. It is filed as functional, organism-based.
Series [6] is described as follows: Half life of the compound in citrate-containing human plasma by HPLC analysis. The class given is ADME, cell-free.
The test system of series [7] is Human immunodeficiency virus. Nature of the series: Substrate activity at HIV reverse transcriptase assessed as n+1 band formation incubated for 30 mins in presence of primer/template mixture and dNTPs by primer extension assay based fluorescence analysis.
Series [8] concerns Human immunodeficiency virus 2. The experiment in a line: Antiviral activity against HIV-2 ROD infected in wild type human CEM/0 cells assessed as inhibition of virus-induced giant cell formation incubated for 4 to 5 days by light microscopy. It is filed as functional, organism-based. The following applies: Human immunodeficiency virus 2, ROD, CCRF-CEM.
Series [9] in a line: Half life of the compound in heparin-stabilized human plasma by HPLC analysis. It is filed as ADME, cell-free.
Series [10] deals with DNA polymerase beta (Homo sapiens) (UniProt P06746). The experiment in a line: Substrate activity at human DNA polymerase beta assessed as n+1 band formation incubated for 120 mins in presence of primer/template mixture and dNTPs by primer extension assay based fluorescence analysis.
Series [11] is described as follows: Drug metabolism in heparin-stabilized human plasma assessed as (R)-9-(2-(phosphonomethoxy)propyl)adenine formation by HPLC analysis. It is filed as ADME, cell-free.
A short description of series [12]: Half life of the compound in phosphate buffer saline at pH 7.3 by RP18-HPLC analysis. The class given is ADME.

Each structure is given as a SMILES string. Active and inactive are the calls of the source.

As a reminder, the half-life is the time needed for the level to fall by half in the phase considered. A high value points to slow decline. Usually CC50 stands for the concentration giving 50% cytotoxicity. Broadly, the EC50 is the concentration needed to bring the measured effect to its halfway point. As for `CCCCCCCCCCCCCCCCCCOP(=O)(OCCCC)OP(=O)(O)OP(=O)(O)CO[C@H](C)Cn1cnc2c(N)ncnc21` (stereo partly specified), the selectivity ratio in [1] came out at 3690. Besides, the outcome in series [2] and in [10] was inactive. Further, the half-life in [3] was more than 20 h; in [6], more than 8 h; in series [9], more than 8 h; in series [12], 257 h. Moreover, in series [4], the half-maximal cytotoxic concentration (CC50) came to 44300 nM. Besides, the EC50 in series [5] turned out to be 47 nM; in series [8] it was 19 nM. For the same compound, the result in series [7] was Active. Further, in [11], the Drug metabolism result was “Metabolite_Detected”.
`CCCCCCCCCCCCCCCCCCP(=O)(OCCCC)OP(=O)(O)CO[C@H](C)Cn1cnc2c(N)ncnc21` (stereo partly specified): the selectivity ratio in series [1] was found to be 14000. Besides, the outcome in series [2], in series [7] and in [10] was inactive. The half-life in [3] is 5.1 h; in [6], more than 5 h; in [9], more than 5 h; in [12], 27 h. The CC50 in series [4] turned out to be 37800 nM. Besides, the EC50 came out at 35 nM in series [5] and 3 nM in [8]. Also, the Drug metabolism entry in [11] was “Metabolite_Detected”.
`CCCCCCCCCCCCCCCCCCP(=O)(OCCCC)OP(=O)(O)OP(=O)(O)CO[C@H](C)Cn1cnc2c(N)ncnc21` (stereo partly specified): the selectivity ratio in series [1] is 1350. The result in series [2], in [7] and in [10] was inactive. Further, the half-life is more than 8 h in series [3], more than 8 h in series [6], more than 8 h in series [9] and more than 500 h in series [12]. Moreover, the CC50 in [4] was 44600 nM. For the same compound, the EC50 in series [5] worked out at 78 nM; in [8] it was 62 nM. Moreover, the Drug metabolism entry in series [11] is reported as “Metabolite_Detected”.

The values are drawn from ChEMBL document CHEMBL5518164, “Membrane-permeable tenofovir-di- and monophosphate analogues” (Eur J Med Chem, 2024).
